Patent US7223787B2, “Prenylation inhibitors reduce host cell permissiveness to viral replication” (priority 2003, dated 2007)

What was measured:
[1] = test system: HCV replicon RNA; conditions: hepatoma cells, recent studies (ref. 23); cited from earlier work
[2] = test system: HCV RNA replication; experiment: HCV RNA replicon levels in Huh7-K2040 cells (subgenomic replicon); conditions: for viral RNA levels (effect in words): 24-hour culture period; for rescue of HCV RNA levels from the suppressive action of lovastatin: lovastatin-treated Huh7-K2040 cells supplemented with the metabolite, 24-hour culture
[3] = test system: H-Ras; experiment: Prenylation of wild-type H-Ras (blot); format: cell-based; conditions: 10 μM
From the text: (§1) In contrast, FPTI-III had no effect on viral RNA levels. To confirm the specificity of GGTI-286 and FPTI-III action, we evaluated the effect of each compound on the prenylation of wild-type H-Ras, which is normally farnesylated, and a mutant H-Ras(S189L) in which the carboxyl-terminal amino acid has been changed to leucine, making it a substrate for GGTase 1 (21). […] Thus, the inhibitory activity of GGTI-286 on HCV RNA replication must be due to its action against GGTase I, and not farnesyl transferase.

[4] = test system: HCV replication complex (NS5A); experiment: Immunocytochemical NS5A staining of the HCV replication complex; format: cell-based, hepatitis C virus
From the text: HCV Replication Complex Requires Protein Geranylgeranylation. Among other functions, geranylgeranylated proteins mediate the interaction of membranes with cytoskeletal proteins (8). Such interactions are likely to be required for the formation of the ER-associated HCV replication complex, which contains the viral RNA as well as the nonstructural viral proteins (1, 2). […] To test whether lovastatin affects the replication complex, we stained cells with an antibody to NS5A and an FITC-labeled second antibody. In the absence of lovastatin treatment, much of the NS5A was localized in a punctate pattern consistent with the ER localization of the HCV replication complex.

[5] = test system: H-Ras(S189L); experiment: Prenylation of mutant H-Ras(S189L), substrate for GGTase I (blot); format: cell-based; conditions: 10 μM
From the text: as §1

[6] = test system: Rap1a; experiment: SDS-PAGE and blot of Rap1a prenylation in Huh7-K2040 cells; format: cell-based, human
[7] = test system: Huh7-K2040 cells; conditions: for cellular DNA synthesis / cellular mRNA synthesis / levels: 24 hours
From the text: (§2) We therefore examined the influence of lovastatin upon the synthesis of DNA, mRNA, and protein in Huh7-K2040 cells.

[8] = test system: HCV RNA replication; experiment: HCV RNA replicon levels in Huh7-HP cells (subgenomic replicon)
[9] = test system: HCV RNA replication; experiment: HCV RNA replicon levels in Huh7-C5B3 cells (genome-length replicon)
[10] = test system: West Nile virus; experiment: WN virus replication in a mouse model; format: in vivo
From the text: Virulence in mice. Mice are housed in an environmentally controlled room under biosafety level 3 conditions and are given food and water ad libitum. Female outbred CD-1 mice (Charles River Laboratories, Wilmington, Mass.) are obtained at 5 weeks of age and acclimatized for 1 week. All mice are 6 weeks of age at the start of the experiment. Eight mice per group are inoculated with diluent alone or with 10^2 PFU of virus subcutaneously (s.c.) in the left rear footpad. Diluent is PBS (endotoxin-free) supplemented with 1% FBS. Mice are evaluated clinically and weighed daily for 2 weeks, then monitored daily and weighed thrice weekly for 2 more weeks. Observed clinical signs include ruffled fur, paresis, hindleg paralysis, and tremors. Morbidity is defined as exhibition of greater than 10% weight loss or clinical signs for 2 or more days. Mice are euthanized if they become moribund.

[11] = test system: West Nile virus; experiment: WN virus replication in mammalian cell types; format: cell-based; conditions: several mammalian cell types
Procedure: Cells and virus. Vero (ATCC CCL-81) cells are grown in minimal essential medium (MEM) supplemented with 10% fetal bovine serum (FBS). BHK-21/WI2 (BHK-21) and Aedes albopictus C6/36 (C6/36) (ATCC CRL-1660) cells are grown in Dulbecco's modification of MEM with 10% FBS and 0.1 mM nonessential amino acids. Antibiotics are added to all media at 10 U/ml of penicillin and 10 μg/ml of streptomycin. Cells are maintained in 5% CO2 at 37° C. (Vero and BHK-21) or 28° C. (C6/36). West Nile viruses are obtained from the World Arbovirus Reference Collection and stocks are grown and plaque titrated in Vero cells. Prenylation inhibitors examined over a series of 10-fold dilutions.
IFA. Indirect immunofluorescence assays (IFA) are used to detect viral protein expression in WNV RNA-transfected BHK-21 cells. After electroporation, approximately 10^5 transfected cells are spotted onto 10-mm glass coverslips. Cells on coverslips are analyzed by IFA at various times posttransfection for viral protein synthesis. […] The coverslips are washed with PBS, mounted to a slide using fluorescent mounting medium (KPL), and observed under a fluorescence microscope equipped with a video documentation system (Zeiss, Thornwood, N.Y.).
Specific infectivity assay. […] Plaques are counted after incubation of the plates for another 12 to 24 h, and the specific infectivity is calculated as the number of PFU per microgram of RNA. […]

[12] = test system: Huh7-K2040 cells; experiment: Cell viability of treated cultures; conditions: cultures treated over 7 days, at the concentrations used
From the text: as §2

## C[C@H](CCCC(C)(C)O)[C@H]1CC[C@H]2[C@@H]3CC=C4C[C@@H](O)CC[C@]4(C)[C@H]3CC[C@]12C [25-hydroxycholesterol]
[1]
  level of HCV replicon RNA: reduce the level of HCV replicon RNA

## COC(=O)[C@H](CC(C)C)NC(=O)c1ccc(NC[C@@H](N)CS)cc1-c1ccccc1 [GGTI-286]
[2]; Huh7-K2040 cells, increasing concentrations of inhibitor
  level of HCV RNA: dose-dependent decrease
[3]
  prenylation (farnesylation) of wild-type H-Ras: inhibiting farnesylation of H-Ras
[4]
  redistribution of HCV NS5A protein from punctate to diffuse pattern: produced a redistribution
[5]
  prenylation (geranylgeranylation) of H-Ras(S189L): inhibiting farnesylation of H-Ras as well as geranylgeranylation of H-Ras(S189L)
[6]; 10 μM
  prenylation of endogenous Rap1a: clear-cut inhibitory effects

## C[C@@]1(CO)[C@H](O)CC[C@@]2(C)[C@H]1CC[C@H]1C[C@@H]3C[C@@]12CC[C@]3(O)CO [aphidicolin]
[2]; Huh7-K2040 cells
  viral RNA levels (effect in words): did not affect
[7]
  global rate of cellular protein synthesis: moderately suppressed
  cellular DNA synthesis: blocked DNA synthesis
  cellular mRNA synthesis / levels: did not affect

## CC(C)=CCCC(C)=CCCC(C)=CCO [farnesol]
[2]
  rescue of HCV RNA levels from the suppressive action of lovastatin: neither farnesol nor oleate, mediated a dose-dependent rescue

## CC(C)=CCC/C(C)=C/CC/C(C)=C/CC/C(C)=C/CO [geranylgeraniol]
[2]
  rescue of HCV RNA levels from the suppressive action of lovastatin: mediated a dose-dependent rescue
[4]; added to lovastatin-treated cells
  prevention of loss of punctate NS5A distribution: prevented the loss of the punctate distribution
[6]; added to lovastatin-treated Huh7-K2040 cells
  restoration of Rap1a geranylgeranylation: eliminated the upper band

## NC(=O)NO [hydroxyurea]
[2]; Huh7-K2040 cells
  viral RNA levels (effect in words): did not affect
[7]
  global rate of cellular protein synthesis: moderately suppressed
  cellular DNA synthesis: blocked DNA synthesis
  cellular mRNA synthesis / levels: did not affect

## CC[C@H](C)C(=O)O[C@H]1C[C@@H](C)C=C2C=C[C@H](C)[C@H](CC[C@@H]3C[C@@H](O)CC(=O)O3)[C@H]21 [lovastatin]
[2]; Huh7-K2040 cells, after 72 hours
  reduction of HCV RNA levels: more than 95%
[2]; Huh7-K2040 cells, after a 24-hour treatment
  reduction of HCV RNA levels: more than 70%
[2]; Huh7-K2040 cells, over a 72-hour culture period
  viral protein levels: reduction in viral protein levels
[8]
  levels of viral proteins: reduced the levels of viral proteins
[9]
  levels of viral proteins: reduced the levels of viral proteins
[4]; treatment for 48 hours
  punctate NS5A staining pattern: largely disappeared
[10]
  WN virus replication: disrupted
[11]
  WN virus replication: disrupted
[6]; Huh7-K2040 cells
  prenylation state of Rap1a: caused the appearance of a slow-migrating form
[12]
  cell viability: no significant effects
[7]
  global rate of cellular protein synthesis: moderately suppressed
  cellular DNA synthesis: did not significantly affect
  cellular mRNA synthesis / levels: did not significantly affect

## CC(O)(CCO)CC(=O)O (centres unmarked) [mevalonate]
[2]
  rescue of HCV RNA levels from the suppressive action of lovastatin: dose-dependent rescue
